Laboratory results published in publication PMC11403612, “Preparation and Preclinical Characterization of a Simple Ester for Dual Exogenous Supply of Lactate and Beta-hydroxybutyrate” (Journal of Agricultural and Food Chemistry, 2024).

What was measured:
[1] = In vitro stability in simulated gastric fluid; assay type: in vitro ADME; conditions: simulated gastric fluid (SGF), pH = 1
Description: The in vitro stability of LaKe was evaluated following incubation in simulated gastric fluid (SGF), simulated intestinal fluid (SIF), fresh and frozen plasma (rats and humans, respectively), and the presence of hepatocytes (rats and humans) and liver microsomes (rats and humans). At the chosen time points, the mixtures were analyzed by LC-MS/MS to quantify the remaining LaKe and all assays included at least one control compound with known pharmacokinetic properties. […]
centrifuged at 4000 rpm, 4℃ for 20 min. 60 μL of supernatant was mixed with 180 μL of purified water for subsequent LC/MS/MS analysis.
LC-MS/MS Condition: ACQUITY UPLC BEH C18 1.7um 2.1 * 50mm Column (Part No.186002350). Mobile phase: A: 0.1% Formic Acid in Water; B: 0.1% Formic Acid in ACN. […]
Samples were incubated at 37 ℃, 600 rpm for the appointed time. At the chosen time points (60, 120, 360, 1440 minutes) samples were immediately mixed with 400 μL of cold acetonitrile containing 200 ng/mL tolbutamide and labetalol (internal standards). 200 μL of suspension was removed and mixed completely with 400 μL of cold acetonitrile containing 200 ng/mL tolbutamide and labetalol again. The T0 samples were prepared by transferring 198 μL of SIF solution to corresponding well after adding 400 μL of cold acetonitrile containing 200 ng/mL tolbutamide and then mixing completely. The samples were […]
Stability of LaKe in plasma […]

[2] = tested on: N-L-lactoyl-phenylalanine (Lac-Phe); experiment: Plasma N-L-lactoyl-phenylalanine after oral LaKe in rats; assay type: in vivo, Sprague–Dawley rats; conditions: 4.5 g/kg oral
Description: Male Sprague–Dawley rats (300–350g, Taconic, Ry, Denmark) were kept for acclimatization at a constant temperature of 23 °C with a 12 h light-dark cycle and with unlimited access to food and water. All animal handling was in accordance with national guidelines in Denmark and the guidelines from the Directive 2010/63/EU of the European Parliament on the protection of animals used for scientific purposes, and all experiments conformed to Danish Law (Act. No. 1306 of 23/11/2007). The experimental protocol was approved by the Danish Animal Expectorate (2018-15-0201-01475).
The rats were randomly selected to receive either LaKe (n = 8) or placebo (n = 8). […]
Concentrations of non-esterified free fatty acids (FFA) were measured using a NEFA-HR(2) kit (Wako, Chemicals Gmbh, Germany). Absorbance was measured by spectrometry (PHERAstar FS, BMG LABTECH, […]
Quantification of N-L-lactoyl phenylalanine (Lac-Phe) by LC-MS/MS […]
Pure calibrant samples were prepared from an authentic standard compound (N-L-lactoyl phenylalanine), using the plasma sample preparation method at concentrations equivalent to […] in the original sample. The lower limit of quantification for N-L-lactoyl phenylalanine (Lac-Phe) quantification was estimated to 10 nM. […]

CC(O)CCOC(=O)C(C)O (centres unmarked) [LaKe, 3-hydroxybutyl 2-hydroxypropanoate]
half-life [1]: > 720 min | change in plasma Lac-Phe [2]: increase
